According to patent US12581252B2, “Substituted pyrrolo[3,4-b]pyridines as PI3K-α inhibitors” (Relay Therapeutics, Inc., priority 2020, dated 2026):

Experiments:
H1047R PIK3CA enzyme = H1047R PIK3CA enzyme (Homo sapiens, UniProt P42336, H1047R); test: ADP-Glo Biochemical PIK3CA Kinase Assay
cells = conditions: Homo sapiens, MCF-10A, read-out: MCF10A IC50

H1047R PIK3CA enzyme, sequence (P42336 whole entry H1047R): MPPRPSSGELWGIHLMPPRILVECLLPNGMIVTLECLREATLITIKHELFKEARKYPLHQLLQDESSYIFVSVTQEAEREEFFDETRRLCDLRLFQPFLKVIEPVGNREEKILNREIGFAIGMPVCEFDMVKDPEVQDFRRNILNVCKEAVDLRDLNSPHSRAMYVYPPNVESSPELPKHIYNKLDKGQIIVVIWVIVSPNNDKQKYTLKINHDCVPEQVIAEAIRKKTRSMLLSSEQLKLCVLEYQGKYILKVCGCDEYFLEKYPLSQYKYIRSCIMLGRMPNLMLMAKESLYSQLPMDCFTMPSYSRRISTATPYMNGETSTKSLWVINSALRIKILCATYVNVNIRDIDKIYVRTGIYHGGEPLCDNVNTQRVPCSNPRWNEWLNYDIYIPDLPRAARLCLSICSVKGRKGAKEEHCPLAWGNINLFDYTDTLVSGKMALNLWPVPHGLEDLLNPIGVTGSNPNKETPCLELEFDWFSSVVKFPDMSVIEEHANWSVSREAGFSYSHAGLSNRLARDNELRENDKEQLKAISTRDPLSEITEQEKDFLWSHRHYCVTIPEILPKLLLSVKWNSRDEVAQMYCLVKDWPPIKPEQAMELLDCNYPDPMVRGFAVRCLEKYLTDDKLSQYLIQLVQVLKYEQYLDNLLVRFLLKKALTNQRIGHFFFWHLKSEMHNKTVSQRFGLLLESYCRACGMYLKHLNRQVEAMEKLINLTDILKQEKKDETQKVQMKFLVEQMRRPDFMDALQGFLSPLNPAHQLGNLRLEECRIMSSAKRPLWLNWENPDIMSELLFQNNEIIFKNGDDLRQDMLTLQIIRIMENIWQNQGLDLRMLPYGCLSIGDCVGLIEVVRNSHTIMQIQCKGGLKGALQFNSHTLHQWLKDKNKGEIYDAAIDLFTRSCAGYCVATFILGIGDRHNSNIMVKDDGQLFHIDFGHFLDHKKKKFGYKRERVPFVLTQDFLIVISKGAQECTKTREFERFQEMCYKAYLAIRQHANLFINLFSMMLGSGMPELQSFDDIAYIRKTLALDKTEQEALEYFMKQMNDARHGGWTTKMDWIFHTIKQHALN
H1047R PIK3CA enzyme, sequence (P27986 whole entry partner): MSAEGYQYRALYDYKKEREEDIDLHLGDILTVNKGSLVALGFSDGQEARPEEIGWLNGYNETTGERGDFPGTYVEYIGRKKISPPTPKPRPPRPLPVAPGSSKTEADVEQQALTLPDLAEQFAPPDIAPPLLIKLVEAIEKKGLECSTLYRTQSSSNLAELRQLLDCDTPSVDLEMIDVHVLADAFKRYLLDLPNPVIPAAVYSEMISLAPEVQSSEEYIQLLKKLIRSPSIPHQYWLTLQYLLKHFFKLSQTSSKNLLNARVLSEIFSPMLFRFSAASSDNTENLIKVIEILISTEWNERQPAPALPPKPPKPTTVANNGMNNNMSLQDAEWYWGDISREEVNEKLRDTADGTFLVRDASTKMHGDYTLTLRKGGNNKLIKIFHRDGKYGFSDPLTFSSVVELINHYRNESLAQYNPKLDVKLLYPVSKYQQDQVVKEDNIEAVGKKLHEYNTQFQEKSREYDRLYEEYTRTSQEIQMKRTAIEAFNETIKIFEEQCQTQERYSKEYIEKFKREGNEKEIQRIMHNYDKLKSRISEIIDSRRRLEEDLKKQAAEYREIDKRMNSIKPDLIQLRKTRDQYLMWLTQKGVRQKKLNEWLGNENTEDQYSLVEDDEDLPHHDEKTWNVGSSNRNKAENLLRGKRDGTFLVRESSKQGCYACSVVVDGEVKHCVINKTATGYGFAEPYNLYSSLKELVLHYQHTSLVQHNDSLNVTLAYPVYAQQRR

| SMILES | IC50 (H1047R PIK3CA enzyme) | IC50 (cells) |
| --- | --- | --- |
| [2H]C1(c2cc(F)ccc2Cl)NC(=O)c2cccc(NC(=O)N3CC(O)(C(F)(F)F)c4cc(F)ccc43)c21 (centres unmarked) [Compound I-2648] | ≤ 100 nM | < 1000 nM |
| CNc1cc(NC(=O)N2C[C@](O)(C(F)(F)F)c3cc(F)ccc32)c2c(c1C#N)C(=O)N[C@@H]2c1cc(F)ccc1Cl (single isomer, unassigned) [Compound I-2609] | ≤ 100 nM | < 1000 nM |
| O=C(Nc1cc(-c2cscn2)cc2c1[C@H](c1cc(F)ccc1Cl)NC2=O)c1cc(F)cc(C(F)(F)F)c1 [Compound I-1084] | ≤ 100 nM | < 1000 nM |
| O=C(Nc1cc(-c2cnoc2)cc2c1C(c1cc(F)ccc1Cl)NC2=O)c1cc(F)cc(C(F)(F)F)c1 (centres unmarked) [Compound I-935] | ≤ 100 nM | < 1000 nM |
| O=C(Nc1cc(Nc2cc[nH]n2)cc2c1C(c1cc(F)ccc1Cl)NC2=O)c1cc(F)cc(C(F)(F)F)c1 (centres unmarked) [Compound I-1112] | ≤ 100 nM | < 1000 nM |
| O=C1COCc2cc(-c3cc(NC(=O)c4cc(F)cc(C(F)(F)F)c4)c4c(c3)C(=O)NC4c3cc(F)ccc3Cl)ccc2N1 (centres unmarked) [Compound I-1043] | ≤ 100 nM | < 1000 nM |
| N#Cc1cnn(Cc2cc(NC(=O)N3C[C@](O)(C(F)(F)F)c4cc(F)ccc43)c3c(c2)C(=O)N[C@@H]3c2cc(F)ccc2Cl)c1 (single isomer, unassigned) [Compound I-2669] | ≤ 100 nM | < 1000 nM |
| O=C(Nc1cc(-c2cccc3cnccc23)cc2c1C(c1cc(F)ccc1Cl)NC2=O)c1cc(F)cc(C(F)(F)F)c1 (centres unmarked) [Compound I-902] | ≤ 100 nM | < 1000 nM |
| O=C1N[C@H](c2ccccc2Cl)c2c(NC(=O)N3C[C@@](O)(C(F)(F)F)c4cc(F)ccc43)cccc21 (single isomer, unassigned) [Compound I-2688] | ≤ 100 nM | < 1000 nM |
| O=C(Nc1cc(-n2cccn2)cc2c1C(c1cc(F)ccc1Cl)NC2=O)c1cc(F)cc(C(F)(F)F)c1 (centres unmarked) [Compound I-960] | ≤ 100 nM | < 1000 nM |
| NCc1cc(NC(=O)N2CC(O)(C(F)(F)F)c3cc(F)ccc32)c2c(c1)C(=O)NC2c1cc(F)ccc1Cl (centres unmarked) [Compound I-2568] | ≤ 100 nM | 10000 to 36000 nM |
| Cc1ccccc1C1NC(=O)c2cccc(NC(=O)c3csc4ccccc34)c21 (centres unmarked) [Compound I-1, N-(1-Oxo-3-(o-tolyl)isoindolin-4-yl)benzo[b]thiophene-3-carboxamide] | 100 to 500 nM | 1000 to 5000 nM |
| O=C(Nc1cc(-c2ccnc3[nH]ccc23)cc2c1C(c1cc(F)ccc1Cl)NC2=O)c1cc(F)cc(C(F)(F)F)c1 (centres unmarked) [Compound I-1049] | ≤ 100 nM | < 1000 nM |
| NCc1cc(NC(=O)N2C[C@@](O)(C(F)F)c3cc(F)ccc32)c2c(c1)C(=O)N[C@@H]2c1cc(F)ccc1Cl (single isomer, unassigned) [Compound I-2694] | ≤ 100 nM | 1000 to 5000 nM |
| O=C(Nc1cc(-c2n[nH]c3ccccc23)cc2c1C(c1cc(F)ccc1Cl)NC2=O)c1cc(F)cc(C(F)(F)F)c1 (centres unmarked) [Compound I-937] | 100 to 500 nM | 1000 to 5000 nM |
| N#CCc1ccc(NC(=O)N2C[C@](O)(C(F)(F)F)c3cc(F)ccc32)c2c1C(=O)N[C@H]2c1cc(F)ccc1Cl (single isomer, unassigned) [Compound I-2614] | ≤ 100 nM | < 1000 nM |
| Cc1ccccc1[C@@H]1NC(=O)c2cccc(NC(=O)c3csc4ccccc34)c21 [Compound I-5] | ≤ 100 nM | 1000 to 5000 nM |
| CN(C)c1cc(NC(=O)N2C[C@](O)(C(F)(F)F)c3cc(F)ccc32)c2c(n1)C(=O)N[C@H]2c1cc(F)ccc1Cl (single isomer, unassigned) [Compound I-2690] | ≤ 100 nM | < 1000 nM |
| Cn1nccc1Nc1cc(NC(=O)c2cc(F)cc(C(F)(F)F)c2)c2c(c1)C(=O)NC2c1cc(F)ccc1Cl (centres unmarked) [Compound I-922] | ≤ 100 nM | < 1000 nM |

| SMILES | IC50 (H1047R PIK3CA enzyme) | IC50 (cells) |
| --- | --- | --- |
| O=C(Nc1cc(NC2COC2)cc2c1[C@H](c1cc(F)ccc1Cl)NC2=O)c1cc(F)cc(C(F)(F)F)c1 [Compound I-814] | ≤ 100 nM | < 1000 nM |
| CC(=O)Nc1cc(NC(=O)c2csc3ccccc23)c2c(c1)C(=O)NC2c1ccccc1C (centres unmarked) [Compound I-52] | ≤ 100 nM | < 1000 nM |
| C[C@]1(C(=O)Nc2cc(Br)cc3c2[C@@H](c2cc(F)ccc2Cl)NC3=O)CCC[C@@H](C(F)(F)F)C1 (single isomer, unassigned) [Compound I-2261] | ≤ 100 nM | < 1000 nM |
| O=C(Nc1cc(Br)cc2c1C(c1cc(F)ccc1C(F)(F)F)NC2=O)c1cc(F)cc(C(F)(F)F)c1 (centres unmarked) [Compound I-1014] | ≤ 100 nM | < 1000 nM |
| C[C@@H](C#N)Cn1cc(-c2cc(NC(=O)N3C[C@@H](O)c4cc(F)ccc43)c3c(c2)C(=O)N[C@H]3c2cc(F)ccc2Cl)cn1 (single isomer, unassigned) [Compound I-2503] | ≤ 100 nM | 5000 to 10000 nM |
| N#Cc1cnccc1-c1cc(NC(=O)c2cc(F)cc(C(F)(F)F)c2)c2c(c1)C(=O)NC2c1cc(F)ccc1Cl (centres unmarked) [Compound I-1098] | ≤ 100 nM | < 1000 nM |
| O=C1NC(c2cc(F)ccc2Cl)c2c(NC(=O)N3CC(O)c4cc(F)ccc43)cc(-n3cncn3)cc21 (mixture of isomers) [Compound I-2414] | 100 to 500 nM | 10000 to 36000 nM |
| O=C1N[C@@H](c2cccc(F)c2F)c2c(NC(=O)c3csc4ccccc34)ccnc21 [Compound I-22] | 500 to 1000 nM | 1000 to 5000 nM |
| O=C(Nc1cc(-c2nc3ncccc3[nH]2)cc2c1C(c1cc(F)ccc1Cl)NC2=O)c1cc(F)cc(C(F)(F)F)c1 (centres unmarked) [Compound I-1026] | ≤ 100 nM | < 1000 nM |
| Cn1nccc1CNc1cc(NC(=O)c2cc(F)cc(C(F)(F)F)c2)c2c(c1)C(=O)NC2c1cc(F)ccc1Cl (centres unmarked) [Compound I-1082] | ≤ 100 nM | < 1000 nM |
| COc1ccc(CNCc2cc(NC(=O)c3nsc4ccccc34)c3c(c2)C(=O)NC3c2cc(F)ccc2Cl)cc1 (centres unmarked) [Compound I-155] | ≤ 100 nM | 1000 to 5000 nM |
| O=C(Nc1cc(Nc2ncc[nH]2)cc2c1C(c1cc(F)ccc1Cl)NC2=O)c1cc(F)cc(C(F)(F)F)c1 (centres unmarked) [Compound I-999] | ≤ 100 nM | 1000 to 5000 nM |
| CC(=O)Nc1cc(NC(=O)N2C[C@](O)(C(F)(F)F)c3cc(F)ccc32)c2c(c1)C(=O)N[C@@H]2c1cc(F)ccc1Cl (single isomer, unassigned) [Compound I-2573] | ≤ 100 nM | < 1000 nM |
| O=C1N[C@H](c2cc(F)ccc2Cl)c2c(NC(=O)N3C[C@@](O)(C(F)(F)F)c4cc(F)ccc43)cc(-n3nccn3)cc21 (single isomer, unassigned) [Compound I-2569] | ≤ 100 nM | < 1000 nM |
| Cc1[nH]ncc1Nc1cc(NC(=O)c2cc(F)cc(C(F)(F)F)c2)c2c(c1)C(=O)NC2c1cc(F)ccc1Cl (centres unmarked) [Compound I-1017] | ≤ 100 nM | < 1000 nM |
| Cc1cc2ncc(-c3cc(NC(=O)c4cc(F)cc(C(F)(F)F)c4)c4c(c3)C(=O)NC4c3cc(F)ccc3Cl)cn2n1 (centres unmarked) [Compound I-1032] | ≤ 100 nM | < 1000 nM |
| COCCc1cc(NC(=O)c2cc(F)cc(C(F)(F)F)c2)c2c(c1)C(=O)NC2c1cc(F)ccc1Cl (centres unmarked) [Compound I-1020] | ≤ 100 nM | < 1000 nM |
| CC(C)(CN)n1cc(-c2cc(NC(=O)c3cc(F)cc(C(F)(F)F)c3)c3c(c2)C(=O)NC3c2cc(F)ccc2Cl)cn1 (centres unmarked) [Compound I-2186] | ≤ 100 nM | 1000 to 5000 nM |
